Experimental data: patent publication US5786367A, “Cyclic amide derivatives” (Otsuka Pharmaceutical Co., Ltd., priority 1994, dated 1998)
Read-outs that look alike come from different tables or passages of the source.

Key:
[1] = test system: lens samples obtained from rat; assay: Activity for preventing the lens opacity (UV-irradiated cultured lens); format: cell-based, rat (Wistar strain, male, 6-10 week age); details: 1 h, read-out: Rate of the activity for preventing lens opacity
Protocol: The lens samples obtained from rat (Wistar strain, male, 6-10 week age) were placed on 24-well plate, and were cultured in DEMEM (Dulbecco's modified Eagle's medium manufactured by Nissui Pharmaceutical Co., Ltd.) at 37° C. overnight, a 5% CO2 environment was used. Under dissecting microscope observation, the lens samples having transparency were only selected to use the test. Thus selected lens samples were transferred to midium (1 ml) in which the test compound was dissolved. (As to the reference test, the medium without containing the test compound was used.) The ultraviolet rays in the intensity of 8.8 mW/cm^2 was irradiated for 60 minutes by using a fluorescent lamp (TOSHIBA FL-20SE) to the lens samples. After the irradiation, the medium was replaced to new medium containing the test compound and further cultured overnight. The medium without the test compound was replaced everyday during 3 days. By using a dissecting microscope, opacity of the lens samples were observed. The degrees of opacity of the lens samples was determined by deviding the field of vision into 8 fields as follows: Score 0: transparent; Score 1: some loss of transparency; and Score 2: completely opaque. Rate of activity for preventing the lens opacity was calculated from the following formula: [formula]

[2] = test system: skin erythema; assay: Activity for inhibiting skin erythema caused by ultraviolet radiation; format: in vivo, albino guinea pig (Hartley strain, female, 7-8 week age); details: for inhibition in vivo at 3 %: Cavia porcellus, UV 1.3-1.5 mW/cm^2 for 30 minutes, measured 24 hours later; for 50% inhibitory concentration (IC50) for inhibiting the skin erythema: three concentrations within 0.1 to 10%
Protocol: The hairs covering in the back of albino guinea pig (Hartley strain, female, 7-8 week age) were shaved by using an electric hair clippers and a shaver. In the next day, the guinea pig was fixed in Bowlman's cage, then a light shield tape (adhesive plaster for patch test), having 4 round holes of 1.5 cm in diameter was adhered on the hair clipped portion so as to provide 4 sites (round holes) to be exposed to the ultraviolet rays. […] Each one of the test sample solutions was prepared by dissolving each test compounds in three kinds of concentrations within 0.1 to 10%, and applied.

[3] = test system: skin homogenate of guinea pig; assay: Activity for inhibiting the formation of lipid peroxides (ultraviolet-B irradiated skin homogenate, TBA method); format: biochemical, albino guinea pig (Hartley strain, female); details: test compound 10^-4 M; UV 9.5 mW/cm^2, 60 minutes
Protocol: The activity for inhibiting the formation of lipid peroxides which are increasingly formed by exposed to the ultraviolet-B radiation to the skin homogenate of guinea pig was determined by a procedure of thiobarbituric acid method (TBA method).
The activity for inhibiting the formation of lipid peroxides can be evaluated by degree of decreasing the optical absorbance of the condensate of thus formed malondialdehyde with thiobarbituric acid, by adding a test sample of the cyclic amide derivative of the present invention to the homogenate.
That is, the hairs covering in the back of an albino guinea pig (Hartley strain, female) were clipped by using an electric hair clippers under anesthesia. After the enucleation of the hair clipped portion of the skin, the subcutaneous tissue of this skin was removed in cold physiological saline. Distilled water in an amount of 9 times by weight of the skin tissue was added to this skin subcutaneous tissue, then was subjected to homogenation and centrifugation (600 g, for 5 minutes) to obtain the supernatant liquid. 5 Microliters each of test sample solutions of various concentrations was added to 0.5 ml each of the supernatant liquid, then the ultraviolet ray in the intensity of 9.5 mW/cm^2 was irradiated for 60 minutes by using fluorescent lamps (TOSHIBA FL-20SE, manufactured by Toshiba Corporation) as a light source. As to the reference sample solution, the solvent for dissolution of the test compound was used in place of the test sample solution. After ultraviolet radiation, the amount of lipid peroxide being formed in the sample solution (TBA value) was measured by TBA method (cf. Analytical Biochemistry, 1979, Vol. 95, pp. 351-358), and the inhibition rate of lipid peroxide formation shown by the test sample was calculated by the following formula: [formula]

[4] = test compound 1 x 10^-4 M, UV 8.8 mW/cm^2, 60 minutes
[5] = 3% concentration of test compound, 10 μl topical, read-out: Rate of activity for inhibiting the skin erythema

50% inhibitory concentration (IC50) for inhibiting the skin erythema ([2]; topical) [concentration in %]	Compound	inhibition at 100 µM [1, 4] [%]	Inhibition rate of lipid peroxide formation [3] [%]	inhibition in vivo at 3 % [2, 5] [%]	other results
	C=CCc1cc2c(c(CC=C)c1O)CCC(=O)N2C(C)C(=O)O (stereo not shown) [Example 115, Sodium 2-(5,7-Diallyl-6-hydroxy-1,2,3,4-tetrahydro-2-oxoquinolin-1-yl)propionate]				inhibition at 100 µM [1]: 63%; inhibition in vivo at 3 % ([2]; topical, 24 h, read-out: Rate of activity for inhibiting the skin erythema, 3% concentration of test compound, 10 μl topical): 33%
	C=CCc1cc2c(c(CC=C)c1O)CCC(=O)N2CCCN.Cl [Example 67, 1-(3-aminopropyl)-5,7-diallyl-3,4-dihydro-6-hydroxy-2(1H)-quinolinone hydrochloride]	40	75	31	
	C=CCc1cc2c(c(CC=C)c1O)CCC(=O)N2CCO [Example 109, 5,7-diallyl-3,4-dihydro-6-hydroxy-1-(2-hydroxyethyl)-2(1H)-quinolinone]	66			
	C=CCc1cc2c(c(CC=C)c1O)CCC(=O)N2CCOC(C)=O [Example 103, 1-(2-Acetyloxyethyl)-5,7-diallyl-3,4-dihydro-6-hydroxy-2(1H)-quinolinone]	57			
	C=CCOc1cc2c(cc1CC=C)CCC(=O)N2CC=C(C)C [Example 20, 6-allyl-7-allyloxy-3,4-dihydro-1-prenyl-2(1H)-quinolinone]		81	37	
2.0	C=CCc1cc2c(c(CC=C)c1O)CCC(=O)N2CC(C)C [Example 41]	55	96	57	
6.5	C=CCc1c(O)ccc2c1CCC(=O)N2CCCCCCCCCCO [Example 63]		81	35	
	C=CCc1cc2c(c(CC=C)c1O)CCC(=O)N2C(C)C [Example 98]	45			
	C=CCc1cc2c(c(CC=C)c1O)CCC(=O)N2CCCCCCCC [Example 101]	55		37	
1.3	C=CCc1cc2c(c(CC=C)c1O)CCC(=O)N2CC=C(C)C [Example 27, 5,7-diallyl-3,4-dihydro-6-hydroxy-1-prenyl-2(1H)-quinolinone]		82	60	
9.4	C=CCc1cc2c(c(CC=C)c1O)CCC(=O)N2CCCCCCCCCCO [Example 33, 5,7-diallyl-3,4-dihydro-6-hydroxy-1-(10-hydroxy)-decyl-2(1H)-quinolinone]		83	18	
	C=CCc1cc2c(c(CC=C)c1O)N(CC=C(C)C)C(=O)CC2 [Example 28, 6,8-diallyl-3,4-dihydro-7-hydroxy-1-prenyl-2(1H)-quinolinone]		80	30	
	O=C1O[C@H]([C@@H](O)CO)C(O)=C1O [Vitamin C, reference compound]	-11			inhibition at 1000 µM ([1]; test compound 10 x 10^-4 M, UV 8.8 mW/cm^2, 60 minutes): 84%
	C=CCc1cc2c(c(CC=C)c1O)CCC(=O)N2C/C=C(\C)CCC=C(C)C [Example 48]		95	37	

Compound	50% inhibitory concentration (IC50) for inhibiting the skin erythema ([2]; topical) [concentration in %]	inhibition at 100 µM [1, 4] [%]	Inhibition rate of lipid peroxide formation [3] [%]	inhibition in vivo at 3 % [2, 5] [%]	other results
C=CCc1cc2c(c(CC=C)c1O)CCC(=O)N2CC(=O)O [Example 76, 1-(carboxymethyl)-5,7-diallyl-3,4-dihydro-6-hydroxy-2(1H)-quinolinone]	3.1		68	50	
